Assay results reported in patent US20120035187A1 (priority 2009, published 2012).

Experiments:
microglia = experiment: NO production from microglia in the presence of LPS; type: cell-based, rat; conditions: concrete data not shown
[1] = tested on: ICR mice administered with amyloid β fragment; experiment: Novel object recognition test, mouse administered with amyloid β fragment, agents of Example 1; type: in vivo; design: key: (novel − memorized seeking time)/(novel + memorized seeking time); conditions: agent of Example 1, 0.3 ml/head intraperitoneally once a day up to the 8th day
Description: One hundred and thirty ICR mice (commercialized by Charles Liver Laboratories Japan Inc., Kanagawa, Japan) were randomly divided into 13 groups, consisting of 10 mice in each group. Amyloid β fragment, represented by an amino acid sequence of SEQ ID NO: 1, used in Experiment 3 was aged at 37° C. for four days, and administered to the lateral ventricle of each mouse in an amount of 9 nmol/6 μl/mouse (the administration method is referred to “Brain Research”, Vol. 706, pp. 181-193 (1996)). […] The mice (10 heads) in the remaining one group were intraperitoneally administered with a sterilized 10% maltose solution (pyrogen-free) once a day up to the 8th day in an amount of 0.3 ml/mouse (control). On the 8th day after the administration, novel object recognition test (see, Japanese Patent Kokai No. 2008-193941) was performed and the average discrimination index (the ratio of prolonged seeking time for novel object to the total seeking time) as a cognitive function index were shown in Table 26. On the 9th day after the administration, the brain of the mice was anatomically isolated, prepared into tissue samples in conventional manner. Depositions of aggregation of amyloid fragment were observed by staining with Congo red or thioflavin T, and degeneration or defect of hippocampal pyramidal cells concerned with cognitive function. The degeneration or the defect of hippocampal pyramidal cells was evaluated by 4-point grade score, by regarding the condition of the control without administration of amyloid β fragment as “none (O)”, “slight (1)”, “moderate (2)”, and “sever (3)”, and the average scores of 10 mice are shown in Table 20.
An experiment apparatus (a glass box of 30 cm in depth, 45 cm in width, and 30 cm in height) and two kinds of objects to be memorized by mice were provided. On the day before the test, the mice were allowed to seek freely in the experiment apparatus with no seeking object for 10 minutes for acclimation. On the test day, the following test was performed twice at an interval of 60 minutes. In the first trial, the same two objects were placed in the apparatus at its both ends, and the mouse was allowed to seek freely for 10 minutes. On the second trial, one of the objects used in the first test was replaced with a different kind of object, and then the mouse was allowed to seek freely for five minutes. In each experiment, when the mouse brought its muffle close to the object within 1-cm apart from the object, or made its muffle or whiskers to contact with the object, the mouse was judged to have a seeking behavior, and the seeking time thereof was measured. The object discrimination index [={(seeking time for novel object)−(seeking time for memorized object)}/{(seeking time of novel object)+(seeking time of memorized object)}] was calculated. The object discrimination index means the ratio of an increased seeking time for novel object to the total seeking time, and the ratio becomes larger when the memory of the once sought object was more strongly held, and it becomes smaller when the memory was more weakly held.

PC12-HS cells = experiment: Evaluation B: neurite-outgrowth action in presence of NGF; type: cell-based, rat
[2] = tested on: hamsters with cerebellar ataxia; experiment: Rotarod test in hamsters with cerebellar ataxia; type: in vivo, hamster; conditions: for time (sec) endured until falling from rotarod apparatus / improving effect on motor coordination (in words): cerebellar ataxia hamsters; for improving effect on motor coordination (in words): agents of Example 1 compared among pentamethine cyanine dye compounds; for Time of falling from rotarod: hamster with cerebellar ataxia, agent of Example 1, 0.5 ml/hamster intraperitoneally once a day for 56 days
Text: Since NK-4 was confirmed to have a neurodegenerative inhibitory action in Experiment 1, hamsters with cerebellar ataxia (cerebellar ataxia is called “cerebellar A” and hamsters with cerebellar ataxia are called “hamsters with cerebellar A”, hereinafter) as a suitable model for human neurodegenerative diseases (e.g., spinal cerebellar degeneration) were subjected to examine the influence of NK-4 administration on their behaviors and brain tissues. Twenty-five hamsters with natural mutation (Nna1 inhibition), which are known to lose Purkinje's cells after three-weeks of age and then induce a spontaneous onset of kinetic motor ataxia after seven-weeks of age (see Akita K. et al., “J. Neurogenetics”, Vol. 21, pp. 19-29, 2007), had been fed at Hayashibara Biochemical Laboratories., Inc., Okayama, Japan, were randomly allocated to the test groups 1 to 5, five heads in each group, as shown in Table 2. Prior to the onset of cerebellar A (at three-weeks of age), PBS was started to administer to the hamsters in the test group 1 at a dose of 10 ml/kg/day. Prior to the onset of cerebellar A (at three-weeks of age), NK-4 was started to be administered to the hamsters in the test groups 2 to 4 at a daily dose of 20 μg/kg, 100 μg/kg or 500 μg/kg. “IGF-1, human, a product name of insulin-like growth factor, commercialized by Assaypro LLC, MO, USA. These administered ingredients were intraperitoneally administered daily to hamsters once a day up to 10-weeks of age. The degree of symptom of cerebellar A and the improvement effect on the symptom by NK-4 were evaluated with an index of improvement in motor coordination of hamsters by conducting once a week the later described rotarod test and the slant tolerance test. At the age of 10-weeks, the hamsters were subjected to counting the falling down frequency and extracted their brains, which were then histologically evaluated. In parallel, the concentration of glutamic acid in the bloods and cerebrospinal fluids (CSF) of the hamsters was assayed. As a test group 6, five normal hamsters, with the same age as the hamsters with cerebellar A used in the test groups 1 to 5, were provided and tested similarly as the hamsters with cerebellar A in such a manner of intraperitoneally administering PBS to them at a dose of 10 ml/kg/day once a day up to 10-weeks of age.
As an index for coordinated movement, it was used a duration time of hamster's movement to staying on a rotarod by locomotion in synchronization with the turn of the rotarod; placing a hamster on an apparatus with a rotarod (having a diameter of 60 mm, prepared by Hayashibara Biochemical Laboratories, Inc., Okayama, Japan), turning at a constant rate of six rpm, and measuring the time until the hamster falls down from the rotarod (see Fernandez et al., “Proc. Natl. Acad. Sci. USA”, Vol. 95, pp. 1253-1258, 1998). The test was repeated six times for each hamster, where five-times of tests starting from the initiation of the test were made as a preliminary examination, and the time until each hamster fell down from the rotarod (called “falling time”, hereinafter) was measured, followed by averaging the falling times for each group consisting of five heads. The falling time was measured until 180 seconds. Based on the results, the relationship between the age and the falling time for each hamster with cerebellar A (test group 1) administered with PBS was graphed. […]
Similarly as in Experiment 2, 130 hamsters with cerebellar ataxia, born within the same week and 3-weeks of age, were randomly divided into 13 groups, consisting of 10 hamsters, respectively. […]

[3] = compound concentration 80 ng/ml
[4] = compound concentration 400 ng/ml
[5] = compound concentration 2000 ng/ml
[6] = compound concentration 10000 ng/ml

## CCN1C=CC(=CC=C(C=Cc2cc[n+](CC)c3ccccc23)c2cc[n+](CC)c3ccccc23)c2ccccc21.[I-].[I-] [NK-4]
microglia
  suppressing NO production from microglia: actions of suppressing NO production
[1]
  Object discrimination index: 0.1
PC12-HS cells; 50 μl of 400 ng/ml test sample solution per well + NGF final 5 ng/ml, 3 days
  Evaluation B: Neurite-outgrowth action: ∘ (The test sample with a neurite outgrowth rate of 30% or higher was judged to be equivalent or more (∘) compared with NK-4)
PC12-HS cells; [3]
  Action on neurite outgrowth (%): 25 ± 9%
PC12-HS cells; [4]
  Action on neurite outgrowth (%): 35 ± 9%
PC12-HS cells; [5]
  Action on neurite outgrowth (%): 52 ± 4%
PC12-HS cells; [6]
  Action on neurite outgrowth (%): 14 ± 6%
PC12-HS cells; final concentration of compound 200 ng/ml
  Rate of cells exhibiting neurite outgrowth (%): 22 ± 8%
PC12-HS cells; final concentration of compound 400 ng/ml
  Rate of cells exhibiting neurite outgrowth (%): 31 ± 14%
PC12-HS cells; final concentration of compound 800 ng/ml
  Rate of cells exhibiting neurite outgrowth (%): 51 ± 3%
PC12-HS cells; final concentration of compound 1600 ng/ml
  Rate of cells exhibiting neurite outgrowth (%): 49 ± 8%
[2]; 20 μg/kg body weight, 6-Weeks
  Delayed days until the onset of cerebellar ataxia in hamster: 11 days
[2]; 20 μg/kg body weight, 7-Weeks
  Delayed days until the onset of cerebellar ataxia in hamster: 17 days
[2]; 20 μg/kg body weight, 8-Weeks
  Delayed days until the onset of cerebellar ataxia in hamster: 17 days
[2]; 20 μg/kg body weight, 9-Weeks
  Delayed days until the onset of cerebellar ataxia in hamster: 27 days
[2]; 20 μg/kg body weight, 10-Weeks
  Delayed days until the onset of cerebellar ataxia in hamster: 32 days
[2]; 100 μg/kg body weight, 5-Weeks
  Delayed days until the onset of cerebellar ataxia in hamster: 7 days
[2]; 100 μg/kg body weight, 6-Weeks
  Delayed days until the onset of cerebellar ataxia in hamster: 14 days
[2]; 100 μg/kg body weight, 7-Weeks
  Delayed days until the onset of cerebellar ataxia in hamster: 21 days
[2]; 100 μg/kg body weight, 8-Weeks
  Delayed days until the onset of cerebellar ataxia in hamster: 21 days
[2]; 100 μg/kg body weight, 9-Weeks
  Delayed days until the onset of cerebellar ataxia in hamster: 29 days
[2]; 100 μg/kg body weight, 10-Weeks
  Delayed days until the onset of cerebellar ataxia in hamster: 36 days
[2]; 500 μg/kg body weight, 5-Weeks
  Delayed days until the onset of cerebellar ataxia in hamster: 6 days
[2]; 500 μg/kg body weight, 6-Weeks
  Delayed days until the onset of cerebellar ataxia in hamster: 14 days
[2]; 500 μg/kg body weight, 7-Weeks
  Delayed days until the onset of cerebellar ataxia in hamster: 21 days
[2]; 500 μg/kg body weight, 8-Weeks
  Delayed days until the onset of cerebellar ataxia in hamster: 21 days
[2]; 500 μg/kg body weight, 9-Weeks
  Delayed days until the onset of cerebellar ataxia in hamster: 28 days
[2]; 500 μg/kg body weight, 10-Weeks
  Delayed days until the onset of cerebellar ataxia in hamster: 35 days
[2]; 20 μg/kg body weight i.p. once a day from 3-weeks of age, 4-Weeks
  time (sec) endured until falling from rotarod apparatus: 152 ± 4 s
[2]; 20 μg/kg body weight i.p. once a day, 5-Weeks
  time (sec) endured until falling from rotarod apparatus: 53 ± 5 s
[2]; 20 μg/kg body weight i.p. once a day, 6-Weeks
  time (sec) endured until falling from rotarod apparatus: 89 ± 9 s
[2]; 20 μg/kg body weight i.p. once a day, 7-Weeks
  time (sec) endured until falling from rotarod apparatus: 74 ± 10 s
[2]; 20 μg/kg body weight i.p. once a day, 8-Weeks
  time (sec) endured until falling from rotarod apparatus: 36 ± 2 s
[2]; 20 μg/kg body weight i.p. once a day, 9-Weeks
  time (sec) endured until falling from rotarod apparatus: 48 ± 3 s
[2]; 20 μg/kg body weight i.p. once a day, 10-Weeks
  time (sec) endured until falling from rotarod apparatus: 40 ± 4 s
[2]; 100 μg/kg body weight i.p. once a day, 4-Weeks
  time (sec) endured until falling from rotarod apparatus: 136 ± 5 s
[2]; 100 μg/kg body weight i.p. once a day, 5-Weeks
  time (sec) endured until falling from rotarod apparatus: 145 ± 8 s
[2]; 100 μg/kg body weight i.p. once a day, 6-Weeks
  time (sec) endured until falling from rotarod apparatus: 139 ± 10 s
[2]; 100 μg/kg body weight i.p. once a day, 7-Weeks
  time (sec) endured until falling from rotarod apparatus: 122 ± 7 s
[2]; 100 μg/kg body weight i.p. once a day, 8-Weeks
  time (sec) endured until falling from rotarod apparatus: 79 ± 12 s
[2]; 100 μg/kg body weight i.p. once a day, 9-Weeks
  time (sec) endured until falling from rotarod apparatus: 66 ± 6 s
[2]; 100 μg/kg body weight i.p. once a day, 10-Weeks
  time (sec) endured until falling from rotarod apparatus: 66 ± 6 s
[2]; 500 μg/kg body weight i.p. once a day, 4-Weeks
  time (sec) endured until falling from rotarod apparatus: 156 ± 5 s
[2]; 500 μg/kg body weight i.p. once a day, 5-Weeks
  time (sec) endured until falling from rotarod apparatus: 95 ± 8 s
[2]; 500 μg/kg body weight i.p. once a day, 6-Weeks
  time (sec) endured until falling from rotarod apparatus: 119 ± 4 s
[2]; 500 μg/kg body weight i.p. once a day, 7-Weeks
  time (sec) endured until falling from rotarod apparatus: 145 ± 7 s
[2]; 500 μg/kg body weight i.p. once a day, 8-Weeks
  time (sec) endured until falling from rotarod apparatus: 85 ± 8 s
[2]; 500 μg/kg body weight i.p. once a day, 9-Weeks
  time (sec) endured until falling from rotarod apparatus: 60 ± 7 s
[2]; 500 μg/kg body weight i.p. once a day, 10-Weeks
  time (sec) endured until falling from rotarod apparatus: 52 ± 5 s
[2]
  improving effect on motor coordination (in words): particularly high improving effect on motor coordination
  Time of falling from rotarod: 88.4 ± 3.2 s
[2]; from rotarod falling time vs test group 1, 20 μg/kg body weight, 5-Weeks
  Delayed days until the onset of cerebellar ataxia in hamster: 0 days

## CCCCN1C=C/C(=C/C=C(/C=C/c2cc[n+](CCCC)c3ccccc23)c2cc[n+](CCCC)c3ccccc23)c2ccccc21 [NK-26]
microglia
  suppressing NO production from microglia: actions of suppressing NO production
[1]
  Object discrimination index: 0.1
PC12-HS cells; [3]
  Action on neurite outgrowth (%): 72 ± 4%
PC12-HS cells; [4]
  Action on neurite outgrowth (%): 71 ± 7%
PC12-HS cells; [5]
  Action on neurite outgrowth (%): 25 ± 7%
PC12-HS cells; [6]
  Action on neurite outgrowth (%): 10< %
[2]
  improving effect on motor coordination (in words): particularly high improving effect on motor coordination
  Time of falling from rotarod: 90.0 ± 7.1 s
